Molecular target: CDK4/Cyclin D1 (Homo sapiens (Human), UniProt P11802)
Assay: CDK4/Cyclin D1 biochemical assay (TR-FRET)
Conditions: 1 mM ATP, 0.15 μM Rb (Ser780)-biotin substrate

Chain of CDK4/Cyclin D1 (P11802 whole entry): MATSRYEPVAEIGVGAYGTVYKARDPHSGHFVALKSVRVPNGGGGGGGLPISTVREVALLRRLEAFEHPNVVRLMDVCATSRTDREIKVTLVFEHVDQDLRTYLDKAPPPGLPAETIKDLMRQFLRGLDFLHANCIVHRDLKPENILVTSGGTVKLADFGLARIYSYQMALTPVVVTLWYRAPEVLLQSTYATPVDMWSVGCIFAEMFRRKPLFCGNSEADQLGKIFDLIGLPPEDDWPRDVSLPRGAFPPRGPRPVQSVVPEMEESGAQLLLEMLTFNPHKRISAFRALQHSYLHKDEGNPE
Chain of CDK4/Cyclin D1 (P24385 whole entry partner): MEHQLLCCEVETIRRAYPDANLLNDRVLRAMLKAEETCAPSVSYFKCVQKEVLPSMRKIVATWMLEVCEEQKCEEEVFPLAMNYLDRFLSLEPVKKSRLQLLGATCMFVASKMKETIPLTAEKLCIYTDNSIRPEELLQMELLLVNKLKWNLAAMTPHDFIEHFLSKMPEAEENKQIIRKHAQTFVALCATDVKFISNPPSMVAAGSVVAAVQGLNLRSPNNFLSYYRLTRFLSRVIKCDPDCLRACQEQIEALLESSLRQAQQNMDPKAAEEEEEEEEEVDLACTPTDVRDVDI

## CN(C)C(=O)c1cc2cnc(N[C@@H]3CCOC[C@H]3O)nc2n1C1CCCC1 [Example 1, 7-cyclopentyl-2-(((3S,4R)-3-hydroxytetrahydro-2H-pyran-4-yl)amino)-N,N-dimethyl-7H-pyrrolo[2,3-d]pyrimidine-6-carboxamide]
  IC50: 68 nM

## CC(=O)c1c(C)c2cnc(N[C@@H]3CCOC[C@H]3O)nc2n(C2CCCC2)c1=O [Example 2 in WO2020212865, reference compound]
  IC50: 8.8 nM

## Cc1ccc(-n2c(C(=O)N(C)C)cc3cnc(N[C@@H]4CCOC[C@H]4O)nc32)cc1 [Example 2, 2-(((3S,4R)-3-hydroxytetrahydro-2H-pyran-4-yl)amino)-N,N-dimethyl-7-(p-tolyl)-7H-pyrrolo[2,3-d]pyrimidine-6-carboxamide]
  IC50: 360 nM

## CN(C)Cc1ccc(-n2c(C(=O)N(C)C)cc3cnc(N[C@@H]4CCOC[C@H]4O)nc32)cc1 [Example 3, 7-(4-((dimethylamino)methyl)phenyl)-2-(((3S,4R)-3-hydroxytetrahydro-2H-pyran-4-yl)amino)-N,N-dimethyl-7H-pyrrolo[2,3-d]pyrimidine-6-carboxamide]
  IC50: 72 nM

## CN(C)Cc1ccc(-n2c(C(=O)N(C)C)cc3cnc(N[C@@H]4CCOC[C@H]4O)nc32)cc1C1CC1 [Example 4, 7-(3-cyclopropyl-4-((dimethylamino)methyl)phenyl)-2-(((3S,4R)-3-hydroxytetrahydro-2H-pyran-4-yl)amino)-N,N-dimethyl-7H-pyrrolo[2,3-d]pyrimidine-6-carboxamide]
  IC50: 9.7 nM

## CN(C)Cc1ccc(-n2c(C(=O)N(C)C)cc3cnc(N[C@@H]4CCOC[C@H]4O)nc32)cc1F [Example 5, 7-(4-((dimethylamino)methyl)-3-fluorophenyl)-2-(((3S,4R)-3-hydroxytetrahydro-2H-pyran-4-yl)amino)-N,N-dimethyl-7H-pyrrolo[2,3-d]pyrimidine-6-carboxamide]
  IC50: 51 nM

## CN(C)Cc1ccc(-n2c(C(=O)N(C)C)cc3cnc(N[C@@H]4CCOC[C@H]4O)nc32)cc1Cl [Example 6, 7-(3-chloro-4-((dimethylamino)methyl)phenyl)-2-(((3S,4R)-3-hydroxytetrahydro-2H-pyran-4-yl)amino)-N,N-dimethyl-7H-pyrrolo[2,3-d]pyrimidine-6-carboxamide]
  IC50: 22 nM

## CN(C)Cc1ccc(-n2c(C(=O)N(C)C)cc3cnc(N[C@@H]4CCOC[C@H]4O)nc32)cc1C(F)(F)F [Example 7, 7-(4-((dimethylamino)methyl)-3-(trifluoromethyl)phenyl)-2-(((3S,4R)-3-hydroxytetrahydro-2H-pyran-4-yl)amino)-N,N-dimethyl-7H-pyrrolo[2,3-d]pyrimidine-6-carboxamide]
  IC50: 5.9 nM

## CN1CCc2cc(-n3c(C(=O)N(C)C)cc4cnc(N[C@@H]5CCOC[C@H]5O)nc43)ccc2C1 [Example 8, 2-(((3S,4R)-3-hydroxytetrahydro-2H-pyran-4-yl)amino)-N,N-dimethyl-7-(2-methyl-1,2,3,4-tetrahydroisoquinolin-6-yl)-7H-pyrrolo[2,3-d]pyrimidine-6-carboxamide]
  IC50: 143 nM

## CN(C)C(=O)c1cc2cnc(N[C@@H]3CCOC[C@H]3O)nc2n1-c1ccc2c(c1)CCCC2N(C)C (stereo partly drawn) [Example 9, 7-(5-(dimethylamino)-5,6,7,8-tetrahydronaphthalen-2-yl)-2-(((3S,4R)-3-hydroxytetrahydro-2H-pyran-4-yl)amino)-N,N-dimethyl-7H-pyrrolo[2,3-d]pyrimidine-6-carboxamide]
  IC50: 12 nM

## CN(C)C(=O)c1cc2cnc(N[C@@H]3CCOC[C@H]3O)nc2n1-c1ccc2c(c1)C1(CCC2N(C)C)CC1 (stereo partly drawn) [Example 10, 7-(4′-(dimethylamino)-3′,4′-dihydro-2′H-spiro[cyclopropane-1,1′-naphthalen]-7′-yl)-2-(((3S,4R)-3-hydroxytetrahydro-2H-pyran-4-yl)amino)-N,N-dimethyl-7H-pyrrolo[2,3-d]pyrimidine-6-carboxamide]
  IC50: 13 nM

## CN(C)C(=O)c1cc2cnc(N[C@@H]3CCOC[C@H]3O)nc2n1-c1ccc2c(c1)C(F)(F)CCC2N(C)C (stereo partly drawn) [Example 11, 7-(5-(dimethylamino)-8,8-difluoro-5,6,7,8-tetrahydronaphthalen-2-yl)-2-(((3S,4R)-3-hydroxytetrahydro-2H-pyran-4-yl)amino)-N,N-dimethyl-7H-pyrrolo[2,3-d]pyrimidine-6-carboxamide]
  IC50: 2.1 nM

## CN(C)C(=O)c1cc2cnc(N[C@@H]3CCOC[C@H]3O)nc2n1-c1ccc2c(c1)CCC2N(C)C (stereo partly drawn) [Example 12, 7-(1-(dimethylamino)-2,3-dihydro-1H-inden-5-yl)-2-(((3S,4R)-3-hydroxytetrahydro-2H-pyran-4-yl)amino)-N,N-dimethyl-7H-pyrrolo[2,3-d]pyrimidine-6-carboxamide]
  IC50: 42 nM

## CN(C)C(=O)c1cc2cnc(N[C@@H]3CCOC[C@H]3O)nc2n1-c1ccc2c(c1)C1(CC1)CC2N(C)C (stereo partly drawn) [Example 13, 7-(3′-(dimethylamino)-2′,3′-dihydrospiro[cyclopropane-1,1′-inden]-6′-yl)-2-(((3S,4R)-3-hydroxytetrahydro-2H-pyran-4-yl)amino)-N,N-dimethyl-7H-pyrrolo[2,3-d]pyrimidine-6-carboxamide]
  IC50: 38 nM

## CC(C)n1c(C(C)(C)O)nc2c(F)cc(-c3nc(N[C@@H]4CCOC[C@H]4O)ncc3Cl)cc21 [Example A94 in WO2019207463, reference compound]
  IC50: 5 nM

From US20250066372A1, “HETEROCYCLIC COMPOUNDS, COMPOSITIONS THEREOF, AND METHODS OF TREATMENT THEREWITH” (BeiGene, Ltd., priority 2022, published 2025)
